# According to paper PMC8274846, “Biogenic nanoporous silicon carrier improves the efficacy of buparvaquone against resistant visceral leishmaniasis” (PLoS Neglected Tropical Diseases, 2021):
# Assays:
# [1] = system: axenic L.donovani amastigotes, AG83-R, SSG (SSG resistant strain generated from AG83); assay: microbe, parasite or virus in culture; type: cell-based
# Description: (§1) L. donovani AG83 (MHOM/IN/83/AG83) and GE1 (MHOM/IN/80/GE1F8R) promastigotes were routinely grown in medium 199 supplemented with 10% heat-inactivated fetal bovine serum, 2 mM L-glutamine, 20 mM HEPES, 100 U/mL penicillin, and 100 μg/mL streptomycin at 25°C. L. donovani amastigote forms were grown and maintained as described previously. Axenic amastigote forms were derived from promastigote forms by culturing them in MMA/20 (medium for axenic amastigote) at pH 5.5 [22]. Axenically grown amastigotes were maintained by sub-culture of 10^5 parasites/ml repeated every fifth day under experimental conditions of 37°C temperature and 5% CO2 environment.
# (§2) SSG and PMM resistant L. donovani amastigotes were generated by using the methods described previously. […] The cultures were stabilized for three subcultures. Then, the drug concentration was increased until the cell population decreased approximately to 20% for each batch. Finally, when 90% cell population of the initial count was reduced, the phenotype generated was plated on medium 199 agar plates containing the same drug concentration, and a single colony was picked for culture in medium 199 liquid media at the same drug concentration. The cultured promastigotes are converted into amastigotes as described above. Drug pressure was withdrawn, and stability was checked at one, two, and four months. SSG and PMM resistant phenotype clones were labeled as AG83-R,SSG and AG83-R, PMM, respectively.
# (§3) The antileishmanial activity of the drug specimens (BPQ+NP, BPQ, SSG, AmB, PMM, and MF) against the axenic amastigotes were evaluated based on the IC50 value, which is the concentration of the specimen required to kill 50% of the parasites. The parasites were first seeded into 96-well plates at a density of 1x10^5 amastigotes/well in 200 μL medium. Then, 10 μL of the drug candidates at various concentrations were added and the final volume was adjusted to […] medium. The number of amastigotes in the wells treated with each specimen were compared to those in the untreated control wells.
# (§4) Microscopic examinations were performed in duplicates with various concentrations of pure drugs or buparvaquone-loaded nanoparticles and also for control wells. The amastigotes cells were counted for all cases using a hemocytometer. The mean of the control wells was considered as 100% survival. The counts in the treated wells at various concentrations were converted into percentages. Giemsa-stained slides of the macrophages infected with amastigotes were observed under a light microscope. Then the numbers of amastigotes and infected macrophages per 100 cells were counted for each slide. The percentage (%) of inhibition was calculated by using the equation %ofinhibition=C−T/C×100, (2) where C is the number of amastigotes/infected macrophages per 100 cells in the control well and T is the number of amastigotes/infected macrophages per 100 cells in the drug-treated well.
# (§5) Origin version 6.1 software was used to calculate IC50 and CC50 values by plotting a graph of the percentage of inhibition at various concentrations of all the observations.
# [2] = system: axenic L.donovani amastigotes, AG83-R, PMM (PMM resistant strain generated from AG83); assay: microbe, parasite or virus in culture; type: cell-based
# Description: as §1, §2, §3, §4, §5
# [3] = IC50 against drug resistant strain / IC50 against wild-type strain (AG83), axenic
smiles,measurement,setting,value
"CC(C)(C)[C@H]1CC[C@H](CC2=C(O)C(=O)c3ccccc3C2=O)CC1 [BPQ, Buparvaquone]",Fold higher axenic IC50 of pure BPQ than BPQ+NP,"[1]; AG83-R, SSG",8 fold
same,"Resistance index (RI), AG83-R, SSG",[1]; [3],2.4 ± 1.2
same,IC50,"[1]; Leishmania donovani, read-out: Axenic IC50, AG83-R, SSG",8.1 ± 0.8 µM
same,Fold higher axenic IC50 of pure BPQ than BPQ+NP,"[2]; AG83-R, PMM",7 fold
same,"Resistance index (RI), AG83-R, PMM",[2]; [3],2.1 ± 1.5
same,IC50,"[2]; Leishmania donovani, read-out: Axenic IC50, AG83-R, PMM",7.1 ± 0.8 µM
